Where no end group is shown, it is not given here.
Key:
Assay type in all cases: in vivo, human
[1] = tested on: patients with BPH who also optionally had LUTS; assay: IPSS obstructive voiding scores in all patients who received FT versus placebo alone (Example Four); details: Table 4, all FT-treated patients vs placebo alone
Text: In a fourth analysis group, patients with BPH who also optionally had LUTS were given an intraprostatic injection of PBS pH 7.2 vehicle alone or of FT, under double-blind conditions by a urologist in an office setting under ultrasound guidance. Patients were followed for 1 to 3 years with regular physical examinations, laboratory tests, and evaluations of symptoms. 217 patients received double blind placebo alone (Group One). 287 patients received double blind FT alone (Group Two). After 1-3 years, 131 patients who received PBS vehicle alone injections received a cross-over injection of FT (Group Three). The final group of 189 patients received blinded FT followed after 1-3 years by a second injection of FT (Group Four). The difference from baseline obstructive voiding scores to follow-up scores were calculated in blinded placebo treated patients (n=217), and compared to groups 2-4 who received FT treatment (n=607).

[2] = tested on: patients with BPH who also optionally had LUTS; assay: IPSS obstructive voiding scores after placebo injection followed by cross-over FT injection (Example Three)
Text: In a third analysis group, patients with BPH who also optionally had LUTS were given an intraprostatic injection of PBS pH 7.2 vehicle alone, under double-blind conditions by a urologist in an office setting under ultrasound guidance. Patients were followed for 1 to 3 years with regular physical examinations, laboratory tests, and evaluations of symptoms. 131 patients who received PBS vehicle alone injections after 1-3 years received a cross-over injection of FT (SEQ ID NO. 1 (Ile-Asp-Gln-Gln-Val-Leu-Ser-Arg-Ile-Lys-Leu-Glu-Ile-Lys-Arg-Cys-Leu), 2.5 mg) in phosphate buffered saline pH 7.2 (“PBS”). The differences from baseline obstructive voiding scores to follow-up scores were calculated in blinded placebo treated patients (Group One); blinded placebo treated patients who received subsequent conventional oral BPH medications (Group Two), and blinded placebo treated patients who subsequently received FT treatment (Group Three).

[3] = tested on: patients with BPH who optionally also had LUTS; assay: IPSS symptom evaluation after a single intraprostatic injection of FT or PBS, double-blind (Example One)
Method: Patients with BPH and who optionally also had LUTS were given an intraprostatic injection of either a) FT (SEQ ID NO. 1 (Ile-Asp-Gln-Gln-Val-Leu-Ser-Arg-Ile-Lys-Leu-Glu-Ile-Lys-Arg-Cys-Leu), 2.5 mg) in phosphate buffered saline pH 7.2 (“PBS”) or b) PBS alone, under double-blind conditions by a urologist in an office setting under ultrasound guidance. Patients were followed for 1 to 6 years with regular physical examinations, laboratory tests, and evaluations of symptoms. Symptomatic evaluation was measured by the International Prostate Symptom Score (IPSS) which is a quantitative scale used to gauge prostatic symptomatic improvement or worsening. The IPSS quantifies the following: 1) incomplete bladder emptying after urination; 2) frequent urination; 3) stopping and starting during urination; 4) urgent need to urinate; 5) weakness of urinary stream; 6) need to push or strain during urination; 7) need to urinate after going to sleep at night (nocturia).
IPSS items 1, 3, 5 and 6 comprise the obstructive voiding scales and IPSS items 2, 4, and 7 comprise the irritative storage scales. The difference from baseline irritative storage scores to follow-up scores; and from baseline obstructive voiding scores to follow-up scores were calculated in FT treated subjects and Placebo treated controls.

[4] = Table 1, single FT injection vs PBS control
[5] = general statement in the description

For “Ile-Asp-Gln-Gln-Val-Leu-Ser-Arg-Ile-Lys-Leu-Glu-Ile-Lys-Arg-Cys-Leu (IDQQVLSRIKLEIKRCL; also: trifluoroacetate salt) [SEQ ID NO: 1-FT, 17-mer peptide …]”, the “improvement in MOVS measured by IPSS compared to control composition that does not contain FT” value [1] was “more than 105%”, the “improvement in MOVS measured by IPSS compared to placebo control followed by conventional oral BPH medication” value ([2]; Table 3, cross-over FT injection) was “more than 320%” and the “improvement in MOVS measured by IPSS compared to control composition that does not contain FT” value ([2]; Table 3, cross-over FT injection vs placebo alone) was “more than 104%”. For the same substance, the “improvement in MISS measured by IPSS compared to control composition that does not contain FT” value [3, 4] was “more than 34%”, the “improvement in MOVS measured by IPSS compared to control composition that does not contain FT” value [3, 4] was “more than 46%” and the “improvement in MISS measured by IPSS compared to control composition that does not contain FT” value [3, 5] was “more than 20%”. The “improvement in MOVS measured by IPSS compared to control composition that does not contain FT” value [3, 5] was “more than 30%”.

— US20200360466A1, “METHOD OF IMPROVING LOWER URINARY TRACT SYMPTOMS” (Nymox Corporation, priority 2019, published 2020)
